Assays:
Type in all cases: in vivo
[1] = tested on: giant foxtail (Setaria faberii); assay: Test A preemergence; settings: preemergence
Method in brief: (§1)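 Each rating is a visual injury score from 0 to 100 given about 10 d after treatment, judged against untreated controls kept alongside in the greenhouse. In loam soil–sand blend, seeds got a preemergence directed soil spray, while postemergence plants were 2 to 10 cm tall at spraying.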

[2] = tested on: ryegrass, Italian (Italian ryegrass, Lolium multiflorum); assay: Test A preemergence; settings: preemergence
Method in brief: as §1

[3] = tested on: ragweed (common ragweed, Ambrosia elatior); assay: Test A preemergence; settings: preemergence
Method in brief: as §1

[4] = tested on: barnyardgrass (Echinochloa crus-galli); assay: Test A preemergence; settings: preemergence
Method in brief: as §1

[5] = tested on: pigweed (Amaranthus retroflexus); assay: Test A preemergence; settings: preemergence
[6] = tested on: Kochia (Kochia scoparia); assay: Test A preemergence; settings: preemergence
Method in brief: as §1

[7] = tested on: giant foxtail (Setaria faberii); assay: Test A postemergence; settings: postemergence, 0 to 100 scale (0 no effect, 100 complete control)
Method in brief: as §1

[8] = tested on: ryegrass, Italian (Italian ryegrass, Lolium multiflorum); assay: Test A postemergence; settings: postemergence, 0 to 100 scale (0 no effect, 100 complete control)
Method in brief: as §1

[9] = tested on: corn (Zea mays); assay: Test A postemergence; settings: postemergence, 0 to 100 scale (0 no effect, 100 complete control)
Method in brief: as §1

[10] = tested on: ragweed (common ragweed, Ambrosia elatior); assay: Test A postemergence; settings: postemergence, 0 to 100 scale (0 no effect, 100 complete control)
Method in brief: as §1

[11] = tested on: wheat (Triticum aestivum); assay: Test A postemergence; settings: postemergence, 0 to 100 scale (0 no effect, 100 complete control)
Method in brief: as §1

[12] = tested on: blackgrass (Alopecurus myosuroides); assay: Test A postemergence; settings: postemergence, 0 to 100 scale (0 no effect, 100 complete control)
Method in brief: as §1

[13] = tested on: barnyardgrass (Echinochloa crus-galli); assay: Test A postemergence; settings: postemergence, 0 to 100 scale (0 no effect, 100 complete control)
Method in brief: as §1

[14] = tested on: pigweed (Amaranthus retroflexus); assay: Test A postemergence; settings: postemergence, 0 to 100 scale (0 no effect, 100 complete control)
Method in brief: as §1

[15] = tested on: Galium (catchweed bedstraw, Galium aparine); assay: Test A postemergence; settings: postemergence, 0 to 100 scale (0 no effect, 100 complete control)
Method in brief: as §1

[16] = tested on: Kochia (Kochia scoparia); assay: Test A postemergence; settings: postemergence, 0 to 100 scale (0 no effect, 100 complete control)
Method in brief: as §1

[17] = tested on: ducksalad (Heteranthera limosa); assay: Test B flooded paddy test; settings: Flood, 500 g ai/ha; 0 to 100 scale where 0 is no effect and 100 is complete control; 13 to 15 d
Method in brief: (§2)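 Response scored visually against untreated controls, 0 = no effect and 100 = complete control, 13–15 d after treatment in the greenhouse. Compounds added to paddy water held 3 cm above soil surface. Treatment given at 2-leaf stage.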

[18] = tested on: barnyardgrass (Echinochloa crus-galli); assay: Test B flooded paddy test; settings: Flood, 500 g ai/ha; 0 to 100 scale where 0 is no effect and 100 is complete control; 13 to 15 d
Method in brief: as §2

[19] = tested on: rice (Oryra sativa); assay: Test B flooded paddy test; settings: Flood, 500 g ai/ha; 0 to 100 scale where 0 is no effect and 100 is complete control; 13 to 15 d
Method in brief: as §2

[20] = tested on: sedge, umbrella (small-flower umbrella sedge, Cyperus difformis); assay: Test B flooded paddy test; settings: Flood, 500 g ai/ha; 0 to 100 scale where 0 is no effect and 100 is complete control; 13 to 15 d
Method in brief: as §2

[21] = 125 g ai/ha, visual rating after approx. 10 d, 0 to 100 scale where 0 is no effect and 100 is complete control
[22] = 500 g ai/ha, 0 to 100 scale, 0 = no effect, 100 = complete control
[23] = 125 g ai/ha, visual injury after approximately 10 d
[24] = 500 g ai/ha, visual injury, approx. 10 d

Compound | Plant response rating, Foxtail, Giant [1, 21] | Plant response rating, Foxtail, Giant [1, 22] | Plant response rating, Ryegrass, Italian [2, 21] | Plant response rating, Ryegrass, Italian [2, 22] | Plant response rating, Ragweed [3, 21] | Plant response rating, Ragweed [3, 22] | Plant response rating, Barnyardgrass [4, 21] | Plant response rating, Barnyardgrass [4, 22] | Plant response rating, Pigweed [5, 21] | Plant response rating, Pigweed [5, 22] | Plant response rating, Kochia [6, 21] | Plant response rating, Kochia [6, 22] | Plant response rating, Foxtail, Giant [7, 23] | Plant response rating, Foxtail, Giant [7, 24] | Plant response rating, Ryegrass, Italian [8, 23] | Plant response rating, Ryegrass, Italian [8, 24] | Plant response rating, Corn [9, 23] | Plant response rating, Corn [9, 24] | Plant response rating, Ragweed [10, 23] | Plant response rating, Ragweed [10, 24] | other results
O=C1NCC(c2ccc(I)cc2)C1C(=O)Nc1ccccc1Cl (racemic) [Compound 704] | 90 | 90 | 0 | 20 | 0 | 20 | 40 | 90 | 0 | 30 | 0 | 30 | 70 | 90 | 0 | 20 | 0 | 0 | 0 | 20 | Plant response rating, Wheat [11, 23]: 0; Plant response rating, Wheat [11, 24]: 0; Plant response rating, Blackgrass [12, 23]: 0; Plant response rating, Blackgrass [12, 24]: 30; Plant response rating, Barnyardgrass [13, 23]: 70; Plant response rating, Barnyardgrass [13, 24]: 90; Plant response rating, Pigweed [14, 23]: 0; Plant response rating, Pigweed [14, 24]: 20; Plant response rating, Galium [15, 23]: 20; Plant response rating, Galium [15, 24]: 40; Plant response rating, Kochia [16, 23]: 0; Plant response rating, Kochia [16, 24]: 20; Plant response rating, Ducksalad [17]: 85; Plant response rating, Barnyardgrass [18]: 30; Plant response rating, Rice [19]: 0; Plant response rating, Sedge, Umbrella [20]: 0
O=C1NCC(c2cccc3ccccc23)C1C(=O)Nc1cccc(F)c1F (racemic) [Compound 711] | 0 | 0 | 0 | 0 | 0 | 0 | 0 | 0 | 0 | 0 | 0 | 0 | 0 | 0 | 0 | 0 | 0 | 0 | 0 | 0 | Plant response rating, Wheat [11, 23]: 0; Plant response rating, Wheat [11, 24]: 0; Plant response rating, Blackgrass [12, 23]: 0; Plant response rating, Blackgrass [12, 24]: 0; Plant response rating, Barnyardgrass [13, 23]: 0; Plant response rating, Barnyardgrass [13, 24]: 0; Plant response rating, Pigweed [14, 23]: 0; Plant response rating, Pigweed [14, 24]: 0; Plant response rating, Galium [15, 23]: 0; Plant response rating, Galium [15, 24]: 0; Plant response rating, Kochia [16, 23]: 0; Plant response rating, Kochia [16, 24]: 0; Plant response rating, Ducksalad [17]: 60; Plant response rating, Barnyardgrass [18]: 0; Plant response rating, Rice [19]: 0; Plant response rating, Sedge, Umbrella [20]: 0

— patent publication US12077503B2, “Substituted cyclic amides and their use as herbicides” (FMC CORPORATION, priority 2015, dated 2024)
